# “And” between values parts separate entries of the source, which are not always exact repeats. Equal values may be shown once.
# Legend:
# [1] = instrument: TW, calibrated with phosphatidylcholines (ESI+) and phosphatidylethanolamines (ESI-)
# [2] = instrument: DT, single field, calibrated with Agilent tune mix (Agilent)
# [3] = instrument: DT, stepped-field
# [4] = [M+Na]+; instrument: DT; stepped-field
smiles,measurement,setting,value
CCCCCCCCCCCCC=CC[C@@H](O)[C@H](CO)NC(=O)CCCCCCCCCCCCCCCCCCC [Cer(d18:1/20:0)],collision cross section (N2),[1]; [M+H]+,266.5 Å²
same,collision cross section (N2),[1]; [M-H]-,255.8 Å²
CCCCCCCCCCCCC=CC[C@@H](O)[C@H](CO[C@@H]1O[C@H](CO)[C@@H](O)C(O)C1O)NC(=O)CCCCCCCCCCCCCCCCCCCCC (stereo not given in full) [GlcCer(d18:1/22:0)],collision cross section (N2),[1]; [M+H]+,293.2 Å²
same,collision cross section (N2),[1]; [M+Na]+,294.3 Å²
CCCCCCCCCCCCC=CC[C@@H](O)[C@H](COP(=O)([O-])OCC[N+](C)(C)C)NC(=O)CC=CCC=CCCCCCCCCCCCCCCC [SM(40:3)],collision cross section (N2),[2]; [M+H]+,294.6 Å²
same,collision cross section (N2),[3]; [M+Na]+,299.9 Å²
CCCCCCCCCCCCC=CC[C@@H](O)[C@H](COP(=O)([O-])OCC[N+](C)(C)C)NC(=O)CCCCCCCCCCCCCCCCCC [SM(37:1)],collision cross section (N2),[2]; [M+H]+,290.8 Å²
same,collision cross section (N2),[3]; [M+Na]+,294.8 Å²
CCCCCCCCCCCCC=CC[C@@H](O)[C@H](CO[C@@H]1O[C@H](CO)[C@@H](O)C(O)C1O)NC(=O)CCCCCCCCCCCCCCCCCCCCCCC (stereo not given in full) [GlcCer(42:1)],collision cross section (N2),[2]; [M+HCOO]-,299.4 Å²
same,collision cross section (N2),[2]; [M+H]+,301.5 Å²
same,collision cross section (N2),[2]; [M+Na]+,302.8 Å²
same,collision cross section (N2),[3]; [M+Na]+,307.5 Å²
OC[C@H]1O[C@@](CO)(O[C@H]2O[C@H](CO)[C@@H](O)[C@H](O)[C@H]2O)[C@@H](O[C@H]2O[C@H](CO)[C@@H](O)[C@H](O)[C@H]2O)[C@@H]1O [Melezitose],collision cross section (N2),[3]; [M+Cs]+,205.8 Å²
same,collision cross section (N2),[3]; [M+H]+,202.6 Å²
same,collision cross section (N2),[3]; [M+K]+,221.9 Å²
same,collision cross section (N2),[3]; [M+Li]+,202.9 Å²
same,collision cross section (N2),[3]; [M+Na]+,202.7 Å²
same,collision cross section (N2),[3]; [M+Rb]+,204.1 Å² and 219.2 Å²
same,collision cross section (N2),[4],203.23 Å²
CCCCCCCCCCCCC=CC[C@@H](O)[C@H](CO[C@@H]1O[C@H](CO)[C@@H](O)C(O)C1O)NC(=O)CCCCCCCCCCCCCCCCCCCCCC (stereo not given in full) [GlcCer(41:1)],collision cross section (N2),[2]; [M+H]+,298.5 Å²
same,collision cross section (N2),[3]; [M+Na]+,302.5 Å²
CCCCCCC/C=C\CCCCCCCC(=O)OC[C@H](COP(=O)([O-])OCC[N+](C)(C)C)OC(=O)CCCCCCC/C=C\CCCCCCCC [PC(35:2)],collision cross section (N2),[2]; [M+H]+,286.4 Å²
same,collision cross section (N2),[3]; [M+K]+,297.7 Å²
CCCCCCCCCCCCC=CC[C@@H](O)[C@H](CO[C@@H]1O[C@H](CO)[C@@H](O)C(O)C1O)NC(=O)CCCCCCCCCCCCCCCCC (stereo not given in full) [GlcCer(36:1)],collision cross section (N2),[2]; [M+HCOO]-,283.3 Å²
same,collision cross section (N2),[2]; [M+H]+,284.1 Å²
same,collision cross section (N2),[2]; [M+Na]+,283.5 Å²
same,collision cross section (N2),[3]; [M+Na]+,286.7 Å²
CC(C)C[C@H](NC(=O)[C@H](CC(=O)O)NC(=O)[C@H](C)NC(=O)[C@H](CC(C)C)NC(=O)[C@@H](N)Cc1c[nH]cn1)C(=O)N[C@@H](CO)C(=O)N[C@@H](CCCCN)C(=O)O [HLADLSK],collision cross section (N2),[3]; [M+H]+,273.3 Å²
CCCCCCCCCCCCC=CC[C@@H](O)[C@H](CO[C@@H]1O[C@H](CO)[C@@H](O)C(O)C1O)NC(=O)CCCCCCCCCCCCCCCCCCCCC (stereo not given in full) [GlcCer(40:1)],collision cross section (N2),[2]; [M+HCOO]-,294.5 Å²
same,collision cross section (N2),[2]; [M+H]+,295.1 Å²
same,collision cross section (N2),[2]; [M+Na]+,296.5 Å²
same,collision cross section (N2),[3]; [M+Na]+,301.1 Å²
CCCCC/C=C\C/C=C\C/C=C\C/C=C\CCCCCC(=O)O[C@H](COC(=O)CCCCCCCCCCCCCCCC)COP(=O)(O)OCCN [PE(39:4)],collision cross section (N2),[3]; [M+Na]+,292.8 Å²
CCCCCCCCCCCCC=CC[C@@H](O)[C@H](COP(=O)([O-])OCC[N+](C)(C)C)NC(=O)CCCCCCCCCCCCCCCCCCCC [SM(39:1)],collision cross section (N2),[2]; [M+H]+,297.4 Å²
same,collision cross section (N2),[3]; [M+Na]+,301.6 Å²
CCCCCCCCCCCCCCCCCCCC(=O)N[C@@H](CO[C@@H]1O[C@H](CO)[C@@H](O)C(O)C1O)[C@H](O)CCCCCCCCCCCCCCC (stereo not given in full) [GlcCer(38:0)],collision cross section (N2),[3]; [M+Na]+,295.6 Å²
CC/C=C\C/C=C\C/C=C\C/C=C\C/C=C\CCCCCC(=O)O[C@H](COC(=O)CCCCCCCCCCCCCCCC)COP(=O)([O-])OCC[N+](C)(C)C [PC(39:5)],collision cross section (N2),[3]; [M+K]+,304.7 Å²
CC/C=C\C/C=C\C/C=C\C/C=C\C/C=C\CCCC(=O)OC[C@H](COP(=O)([O-])OCC[N+](C)(C)C)OC(=O)CCC/C=C\C/C=C\C/C=C\C/C=C\C/C=C\CC [PC(40:10)],collision cross section (N2),[3]; [M+Na]+,301.5 Å²
CCCCC/C=C\C/C=C\C/C=C\C/C=C\CCCCCC(=O)OC[C@H](COP(=O)(O)OC[C@H](N)C(=O)O)OC(=O)CCCCC/C=C\C/C=C\C/C=C\C/C=C\CCCCC [PS(44:8)],collision cross section (N2),[3]; [M+Na]+,306.8 Å²
CC/C=C\C/C=C\C/C=C\C/C=C\C/C=C\C/C=C\CCC(=O)OC[C@H](COP(=O)(O)OC[C@H](N)C(=O)O)OC(=O)CCCCCCCCC/C=C\CCCCCCCCCC [PS(44:7)],collision cross section (N2),[3]; [M+Na]+,311.8 Å²
CC/C=C\C/C=C\C/C=C\C/C=C\CCCCC(=O)O[C@H](COC(=O)CCCCCCC/C=C\C/C=C\CCCCC)COP(=O)(O)OCCN [PE(36:6)],collision cross section (N2),[3]; [M+Na]+,276.3 Å²
CCCCCCCCCCCCCCCCC(=O)O[C@H](COC(=O)CCCCCCCCCCCCCCC)COP(=O)(O)OCCN [PE(33:0)],collision cross section (N2),[3]; [M+K]+,277.2 Å²
CCCCC/C=C\C/C=C\CCCCCCCCCC(=O)OC[C@H](COP(=O)(O)OCCN)OC(=O)CCCCCCCCCCCCCCCCCC [PE(39:2)],collision cross section (N2),[3]; [M+K]+,295.9 Å²
CC/C=C\C/C=C\C/C=C\C/C=C\C/C=C\C/C=C\CCC(=O)OC[C@H](COP(=O)(O)OC[C@H](N)C(=O)O)OC(=O)CCCCCCC/C=C\CCCCCCCCC [PS(41:7)],collision cross section (N2),[3]; [M+Na]+,299.2 Å²
CC(C)C[C@H](NC(=O)[C@H](C)NC(=O)[C@H](CO)NC(=O)[C@@H](N)C(C)C)C(=O)N[C@@H](Cc1ccc(O)cc1)C(=O)N[C@@H](CCCCN)C(=O)O [VSALYK],collision cross section (N2),[3]; [M+H]+,261.8 Å² and 254 Å²
OC[C@H]1OC(OC[C@H]2OC(O[C@]3(CO)O[C@H](CO)[C@@H](O)[C@@H]3O)[C@H](O)[C@@H](O)[C@@H]2O)[C@H](O)[C@@H](O)[C@H]1O (stereo not given in full) [Raffinose],collision cross section (N2),[3]; [M+K]+,212.7 Å²
same,collision cross section (N2),[3]; [M+Na]+,210.7 Å²
same,collision cross section (N2),[3]; [M+Rb]+,218.7 Å² and 229.7 Å²
NCC(=O)N[C@@H](CCCN=C(N)N)C(=O)NCC(=O)N[C@@H](CC(=O)O)C(=O)N[C@@H](CO)C(=O)O [GRGDS],collision cross section (N2),[3]; [M+H]+,205.9 Å²
same,collision cross section (N2),[3]; [M+K]+,210.4 Å²
same,collision cross section (N2),[3]; [M+Na]+,208.2 Å²
CCC=CCC=CCC=CCC=CCC=CCC=CCC(=O)OC[C@H](COP(=O)(O)OC[C@H](N)C(=O)O)OC(=O)CC=CCC=CCC=CCC=CCC=CCC=CCC [PS(42:12)],collision cross section (N2),[3]; [M+Na]+,293.7 Å²
CCCCCCCCCCCCC=CC[C@@H](O)[C@H](CO[C@@H]1O[C@H](CO)[C@@H](O)C(O)C1O)NC(=O)CC=CCCCCCCCCCCCCCCCCCCCCCC (stereo not given in full) [GlcCer(44:2)],collision cross section (N2),[3]; [M+Na]+,315.3 Å²
CC/C=C\C/C=C\C/C=C\C/C=C\C/C=C\CCCC(=O)O[C@H](COC(=O)CCCC/C=C\C/C=C\C/C=C\CCCCC)COP(=O)([O-])OCC[N+](C)(C)C [PC(38:8)],collision cross section (N2),[3]; [M+Na]+,299.9 Å²
CCCCC/C=C\C/C=C\C/C=C\C/C=C\CCCCCC(=O)O[C@H](COC(=O)CCCCCCC/C=C\CCCCC)COP(=O)([O-])OCC[N+](C)(C)C [PC(37:5)],collision cross section (N2),[3]; [M+K]+,299 Å²

# From the C3SDB collision cross section collection
